Source: patent US6875781B2, “Pyridines and uses thereof” (Cell Therapeutics, Inc., priority 2003, dated 2005)

What follows are compounds tested against T1, LPAAT-β (Homo sapiens, UniProt O15120) (assay: LPAAT-β cell-free assay). Settings: Sf9 cell membrane overexpressing recombinant LPAAT-β.
T1 construct: the full-length human LPAAT-β cDNA was amplified by PCR from the DNA template pCE9.LPAAT-β; poly-histidine tag (N); made in house; host or cells: Sf9 insect cells (baculovirus, pFastBac HTc); membrane fraction used
T1 sequence (O15120 24-278): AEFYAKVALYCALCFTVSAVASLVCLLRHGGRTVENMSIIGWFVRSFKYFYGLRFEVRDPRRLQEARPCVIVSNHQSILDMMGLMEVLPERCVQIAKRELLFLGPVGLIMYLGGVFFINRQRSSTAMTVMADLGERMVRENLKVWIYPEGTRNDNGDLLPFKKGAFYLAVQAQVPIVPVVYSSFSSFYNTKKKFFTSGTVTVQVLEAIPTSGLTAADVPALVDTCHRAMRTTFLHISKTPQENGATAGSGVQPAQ
Type: biochemical
Text: For the construction of Baculovirus expression vectors, the full-length human LPAAT-β cDNA was amplified by PCR from the DNA template pCE9.LPAAT-β (West et at., DNA Cell Biol. 16:691-701 (1997)) using the primers 5′-[…] ATGGAGCTGTGGCCGTCTC-3′ (olpb1F; SEQ ID NO:1) and 5′-CAGGCTCTAG ACTACTGGGCCGGCTGCAC-3′ (olpb1R; SEQ ID NO:2). The ˜870 bp fragment generated was reamplified by PCR using the primers 5′[…] TCCGAAGAAGATC-3′ (olpb2F; SEQ ID NO:3) and 5′-CAGGCTCTAGCTACTGGGC CGGCTGCAC-3′ (olpb1R; SEQ ID NO:2). The ˜890 bp fragment generated as then cleaved with Sal I and Xba I for insertion into pFastBac™ HTc vector (Life Technologies, Gaithersberg, Md.) between the Sal I and Xba I sites for the generation of the plasmid pFB.LPAAT-β. This plasmid was then transformed into E. coli DH10Bac™ (Life Technologies, Gaithersberg, Md.) for the generation of recombinant Bacmid DNA for transfection in HighFive (Invitrogen, San Diego, Calif.) or SF9 insect cells for the production of recombinant Baculovirus stocks using the protocol described in the Bac-to-Bac® Baculovirus Expression System (Life Technologies, Gaithersberg, Md.), a eukaryotic expression system for generating recombinant baculovirus through site-specific transposition in E. coli. Viral stocks harvested from the transfected cells can then be used to infect fresh insect cells for the subsequence expression of LPAAT-β fusion protein with a poly-histidine tag and a myc-epitope near its N-terminus. The membrane fraction from these Sf9 cells would be the source of LPAAT enzyme.
For the preparation of membranes from Sf9 Cells, all steps are performed on ice or at 4° C. Sf9 cell pellets (˜10^8 cells) were thawed and resuspended in 1-2 ml of buffer A (20 mM Hepes, pH 7.5, 1 mM DTT, 1 mM EDTA, 20% w/v glycerol, 1 mM Benzamidine, 1 μg/ml soybean trypsin inhibitor (SBTI), 1 μg/ml pepstatin A) w/o DTT but with 1 mM Pefabloc. The cells were lysed by sonication using a Branson Sonifier at output=2, duty cycle=2, 10 pulses each at 10 s. with the tip of small sonicator probe submerged but not touching the walls. DTT was then added to 1 mM from a 1 M stock. The samples were centrifuged at 1500 rpm for 5 min. The low speed supernatant was saved and centrifuged (TLA 100.3 rotor, polycarbonate tubes, 2 ml/tube or 1.5 ml/tube minimum) at 100000×g for 1 hr. The high speed pellet was resuspend in Buffer A with a probe sonicator (10 pulses @ output #2 and duty cycle 20%) as a source of LPAAT enzyme.
LPAAT-β catalyzes the transfer of an acyl group from a donor such as acyl-CoA to LPA. The transfer of the acyl group from acyl-CoA to LPA leads to the release of free CoA, which can be reacted with the thiol reagent, 5,5′-dithiobis(2-nitrobenzoic acid) (DTNB). The reaction between DTNB and the free sulfhydryl group from CoA generates a yellow-colored product, 3-carboxylato-4-nitrothiophenolate (CNP), that absorbs at 413 nm. LPAAT-β derived from Sf9 cell membrane overexpressing LPAAT-β were resuspended in HEPES saline buffer (20 mM HEPES pH 7.5, 150 mM NaCl), 1 mg/ml BSA and 72 μl aliquots were distributed into 96-well microtiter plates. 8 μl of compound of interest at 200 μM dissolved in 100% DMSO was added into each well. 20 μl of 1 mM 18:1-CoA and 1 mM sn-1-18:1 lysoPA was then added to each well to initiate the reaction and allowed to run at room temperature for 25 min. 100 μl of 1 mM DTNB in 100% ethanol was then added to each well to quench the reaction and for color development. The absorbance at 405 nm, measured using a spectrophotometer plate reader, is proportional to the activity of LPAAT-β in the sample. This colorimetric assay was used for the high throughput screening of LPAAT inhibitors.
The radiometric assay was carried out in Sf9 cell membrane overexpressing LPAAT-β resuspended in HEPES-saline buffer, pH 7.5, 1 mg/ml BSA, 1 mM EDTA and 200 μM [^14C]18:1-CoA and 200 μM sn-1-18:1 lysoPA. […]

Compound	IC50
COc1ccc(Cl)cc1-c1cc(Nc2ccc(C)cc2)cc(Cl)n1 [Example 1, [2-Chloro-6-(5-chloro-2-methoxy-phenyl)-pyridin-4-yl]-p-tolyl-amine]	200 nM
COc1ccc(Cl)cc1-c1cc(N)nc(Nc2ccc(Cl)cc2)c1 [Example 8, 4-(5-Chloro-2-methoxy-phenyl)-N-(4-chloro-phenyl)-pyridine-2,6-diamine]	40 nM
COc1ccc(Cl)cc1-c1cc(N)cc(Nc2ccc(Cl)cc2)n1 [Example 4, 6-(5-Chloro-2-methoxy-phenyl)-N*2*-(4-chloro-phenyl)-pyridine-2,4-diamine]	6500 nM
COc1ccc(Cl)cc1-c1cc(Nc2ccc(C)cc2)cc(NC(C)=O)n1 [Example 5, N-[6-(5-chloro-2-methoxy-phenyl)-4-p-tolylamino-pyridin-2-yl]-acetamide]	34000 nM
COc1ccc(Cl)cc1-c1cc(N)cc(Nc2ccc(C)cc2)n1 [Example 3, 6-(5-Chloro-2-methoxy-phenyl)-N*2*-p-tolyl-pyridine-2,4-diamine]	29000 nM
COc1ccc(Cl)cc1-c1cc(Nc2ccc(Cl)cc2)cc(N)n1 [Example 7, 6-(5-Chloro-2-methoxy-phenyl)-N*4*-(4-chloro-phenyl)-pyridine-2,4-diamine]	18000 nM
COc1ccc(Cl)cc1-c1cc(Cl)cc(Nc2ccc(C)cc2)n1 [Example 2, [4-Cloro-6-(5-chloro-2-methoxy-phenyl)-pyridin-2-yl]-p-tolyl-amine]	> 40000 nM
COc1ccc(Cl)cc1-c1cc(Nc2ccc(C)cc2)cc(N)n1 [Example 6, 6-(5-Chloro-2-methoxy-phenyl)-N*4*-p-tolyl-pyridine-2,4-diamine]	35000 nM
COc1ccc(Cl)cc1-c1cc(N)nc(Nc2ccc(C)cc2)c1 [Example 9]	240 nM

Now from value to compound:

IC50	Compound
260 nM	COc1ccc(Cl)cc1-c1cc(N)nc(Nc2ccc(C=O)cc2)c1 [Example 14, 4-[6-Amino-4-(5-chloro-2-methoxy-phenyl)-pyridin-2-ylamino]-benzaldehyde]
100 nM	CCOc1ccc(Cl)cc1-c1cc(N)nc(Nc2ccc(CO)cc2)c1 [Example 13, {4-[6-Amino-4-(5-chloro-2-ethoxy-phenyl)-pyridin-2-ylamino]-phenyl}-methanol]
490 nM	CCOc1ccc(Cl)cc1-c1cc(N)nc(Nc2ccc(C)cc2)c1 [Example 10]
50 nM	CCOc1ccc(Cl)cc1-c1cc(N)nc(Nc2ccc(Cl)cc2)c1 [Example 11, 4-(5-Chloro-2-ethoxy-phenyl)-N-(4-chloro-phenyl)-pyridine-2,6-diamine]
50 nM	CCOc1ccc(Cl)cc1-c1cc(N)nc(Nc2ccc(C=O)cc2)c1 [Example 12, 4-[6-Amino-4-(5-chloro-2-ethoxy-phenyl)-pyridin-2-ylamino]-benzaldehyde]
